Source: patent publication US20040234610A1, “Medical device and method for inhalation of aerosolized drug with heliox” (priority 2001, published 2004)

Key:
[1] = test system: adult patients with severe acute exacerbation of asthma; experiment: Randomized study, albuterol nebulized with heliox 80:20 vs oxygen (control) through semi-closed system, FEV1 spirometry; format: in vivo, human
Text: Forty-five patients were randomized to receive albuterol nebulized with oxygen (control) versus heliox. At baseline, demographics, outpatient asthma medications, vital signs, oxygen saturation and forced expiratory volume in one second (FEV1) were not different between the two groups. Three consecutive albuterol treatments were given to each group.
The study subjects were adult patients who presented to the Emergency Department at the University of Chicago Medical Center for a severe acute exacerbation of asthma. The study was approved by the Institutional Review Board and all patients enrolled gave written informed consent before beginning the study. Patients 50 years of age or under meeting American Thoracic Society criteria for the diagnosis of asthma were eligible. To assure that only those with severe persistent asthma were studied, only those patients with baseline forced expiratory volume in one second (FEV1) less than fifty percent predicted were enrolled in the study.
(§1) The heliox delivery system consisted of a facemask connected to a Y-piece with the nebulizer (Airlife™ Misty-Neb™ Nebulizer) on one limb and a non-rebreather bag on the other limb (as shown in FIG. 1). Heliox flow to the nebulizer was set at 10 liters/minute (via an oxygen calibrated flow meter thus equivalent to 18 L/min Heliox flow). A separate flow of 10 liters/minute of heliox (via an oxygen calibrated flow meter thus equivalent to 18 L/min Heliox flow) was delivered to the non-rebreather bag. […] Each treatment continued until the nebulizer was dry—a period of approximately ten minutes, followed by a fifteen minute washout period. The total time for the study was approximately 90 minutes. Corticosteroid therapy for asthma exacerbations was directed by the emergency room physicians, who were not directly involved in the study.
To assure its accuracy for the purpose of this study, the spirometer was tested every other week using a three liter syringe. In addition, the accuracy of FEV, recordings was tested by having subjects perform forced expiratory maneuvers through the portable spirometer at varying flow rates while it was in-line with a Medical Graphics 1070 pulmonary function testing system. (This system was calibrated daily.) This test was also performed every other week for the first three months of the study and monthly thereafter.
Patients performed a minimum of three forced expiratory maneuvers with values recorded according to the American Thoracic Society recommendations (American Thoracic Society: Standardization of spirometry—1994 update, Am. J. Respir. Crit. Care Med. 152:1107-36 (1995)). All spirometric measurements were made by investigators who were blinded to the gas used for albuterol nebulization. […] Patients were not told explicitly which treatment limb they were randomized to; however, because of potential voice changes while breathing heliox, it was not possible to assure that patients were blinded to which therapy they received.
Demographic data, chronic asthma medications, emergency room corticosteroid administration, vital signs (heart rate, mean arterial pressure, respiratory rate), oxygen saturation by pulse oximetry, emergency room length of stay and hospital admissions from the emergency room were recorded for all patients. Data are expressed as mean±SD when normally distributed and median (interquartile range) when not normally distributed. Interval data were compared using a two-tailed Student's t test or Mann Whitney U test according to normality of distribution, categorical data were compared using Chi square or Fisher Exact test when appropriate. […] The Student-Newman-Keuls test was used to compare differences between heliox and control groups after each nebulization treatment when appropriate. […] A 25% difference in percent change in FEV1 between the control and heliox groups was considered clinically important. […]

[2] = test system: adult patients with severe acute exacerbation of asthma; experiment: Same randomized study: vital signs, pulse oximetry, hospital admissions; format: in vivo, human; conditions: for % change HR post neb 1 / % change HR post neb 2 / % change HR post neb 3: mean ± SD; for Hospital admission rate: P=0.81
Text: as §1
Demographic data, chronic asthma medications, emergency room corticosteroid administration, vital signs (heart rate, mean arterial pressure, respiratory rate), oxygen saturation by pulse oximetry, emergency room length of stay and hospital admissions from the emergency room were recorded for all patients. Data are expressed as mean±SD when normally distributed and median (interquartile range) when not normally distributed. Interval data were compared using a two-tailed Student's t test or Mann Whitney U test according to normality of distribution, categorical data were compared using Chi square or Fisher Exact test when appropriate. […] The Student-Newman-Keuls test was used to compare differences between heliox and control groups after each nebulization treatment when appropriate. […] A 25% difference in percent change in FEV1 between the control and heliox groups was considered clinically important. Using a standard deviation of 28% (based on preliminary work), an a error of 0.05 and a β error of 0.20, it was estimated that a total of 42 patients (21 in each group) would be needed to avoid a type II error. […] In this situation, a P value of <0.0167 was considered to indicate statistical significance.

CC(C)(C)NCC(O)c1ccc(O)c(CO)c1 (stereo not drawn) [albuterol]
median percent change in FEV1 from baseline ([1]; control group (nebulized with oxygen 10 L/min), after albuterol treatment 1): 14.6%
median percent change in FEV1 from baseline ([1]; control group (oxygen), after treatment 2): 22.7%
median percent change in FEV1 from baseline ([1]; control group (oxygen), after treatment 3): 26.6%
median percent change in FEV1 from baseline ([1]; heliox group (nebulized with heliox 80:20), after albuterol treatment 1, P=0.007 vs control): 32.4%
median percent change in FEV1 from baseline ([1]; heliox group, after treatment 2, P=0.007 vs control): 51.5%
median percent change in FEV1 from baseline ([1]; heliox group, after treatment 3, P=0.016 vs control): 65.1%
differences in other vital signs or pulse oximetry, heliox vs control ([2]; MAP, RR, SpO2, at any point during the study): no other significant differences in any vital signs or in pulse oximetry between the groups
% change HR post neb 1 ([2]; control (oxygen)): −8.7 ± 7.4%
% change HR post neb 2 ([2]; control (oxygen)): −4.6 ± 8.7%
% change HR post neb 3 ([2]; control (oxygen)): −2.7 ± 12.7%
Hospital admission rate ([2]; control group (oxygen)): 6 of 22
Hospital admission rate ([2]; heliox group): 6 of 23
% change HR post neb 1 ([2]; heliox, P 0.01 vs control): −0.9 ± 7.8%
% change HR post neb 3 ([2]; heliox, P 0.01 vs control): 5.6 ± 12.0%
% change HR post neb 2 ([2]; heliox, P 0.08 vs control): 1.0 ± 11.3%
